According to patent US5587475A, “Derivatized virginiamycin M1” (University of Notre Dame, priority 1995, dated 1996):

What was measured:
[1] = test system: Micrococcus luteus; assay: in vivo activity, M.I.C. on M. luteus (VM1 derivatives alone, without VS1); type: cell-based; set-up: key: (+) indicates multiplication of bacteria; conditions: M. luteus in LBroth, 18 h at 37° C. with shaking
Procedure: The synthesized derivatives of the present invention have been tested for antibacterial activity (in solid and liquid medium), ribosome binding affinity and synergistic activity with virginiamycin S. The tests for biological activity were carried out both in vivo and in vitro. The in vivo tests were carried out using Micrococcus luteus as the test organism with the VM1 derivatives alone (without VS1). Minimum inhibitory concentrations (MIC values) were determined on agar broth plates by standard microbiological procedures, with a range of concentrations of the VM derivatives applied to the plates. The in vitro tests of the VM derivatives were performed together with VS1, and took advantage of the unique fluorescence (F) inherent in VS1. The results are summarized in the following tables, wherein the activities are compared to virginiamycin (VM1). | M. luteus in LBroth, 18 h at 37° C. with shaking. | M. luteus in LBroth, 18 h at 37° C. with shaking.

[2] = test system: ribosomes; assay: in vitro activity: binding to free ribosomes, VS1 fluorescence with erythromycin displacement; set-up: key to kobs (symbol): (*) too small to be measured. t/2 is very large; conditions: together with VS1, fluorescence
Procedure: The in vivo tests were carried out using Micrococcus luteus as the test organism with the VM1 derivatives alone (without VS1). Minimum inhibitory concentrations (MIC values) were determined on agar broth plates by standard microbiological procedures, with a range of concentrations of the VM derivatives applied to the plates. The in vitro tests of the VM derivatives were performed together with VS1, and took advantage of the unique fluorescence (F) inherent in VS1. […] Using spectrofluorometry, an increase in fluorescence can be measured when ribosomes are added to a VS1 solution. Erythromycin is known to bind at the same position on the ribosome (50-S subunit) as VS1, and when it is added to the VS1 /ribosomal mixture, a decrease in fluorescence is seen. If VM1 is added to the VS1 /ribosomal/erythromycin mixture, an increase in fluorescence can be measured. Presumably, a conformational change of the ribosomes occurs upon binding of VM1, which allows VS1 to bind preferentially and releases erythromycin from the ribosomes. The VM1 derivatives would also display this type of behavior if they bind to the ribosomes.

[3] = in vitro Activity of VM1-Carboxylic Acid Derivatives
[4] = in vitro Activity of VM1-Ester Derivatives

Row | kobs [2, 3] | t/2 [2, 3] [s] | kobs [2, 4] [s⁻¹] | t/2 [2, 4] [s] | Compound | in vivo Acitivity of VM1-Carboxylic Derivatives, M.I.C. on M. luteus (multiplication of bacteria) ([1]; Concentration 0.0625 μg/mL) | in vivo Acitivity of VM1-Carboxylic Derivatives, M.I.C. on M. luteus (multiplication of bacteria) ([1]; Concentration 0.125 μg/mL) | in vivo Acitivity of VM1-Carboxylic Derivatives, M.I.C. on M. luteus (multiplication of bacteria) ([1]; Concentration 0.25 μg/mL) | in vivo Activity of VM1-Ester Derivatives, M.I.C. on M. luteus (multiplication of bacteria) ([1]; Concentration 0.0625 μg/mL) | in vivo Activity of VM1-Ester Derivatives, M.I.C. on M. luteus (multiplication of bacteria) ([1]; Concentration 0.125 μg/mL) | in vivo Activity of VM1-Ester Derivatives, M.I.C. on M. luteus (multiplication of bacteria) ([1]; Concentration 0.25 μg/mL) | in vivo Activity of VM1-Ester Derivatives, M.I.C. on M. luteus (multiplication of bacteria) ([1]; Concentration 0.5 μg/mL) | in vivo Activity of VM1-Ester Derivatives, M.I.C. on M. luteus (multiplication of bacteria) ([1]; Concentration 1 μg/mL) | in vivo Activity of VM1-Ester Derivatives, M.I.C. on M. luteus (multiplication of bacteria) ([1]; Concentration 2 μg/mL) | in vivo Activity of VM1-Ester Derivatives, M.I.C. on M. luteus (multiplication of bacteria) ([1]; Concentration 4 μg/mL) | other results
1 | .00047 s⁻¹ | 1487 | – | – | CC1=C\[C@@H](O)CC(=O)Cc2nc(co2)C(=O)N2CC[C@@H](SCC(=O)O)[C@@H]2C(=O)O[C@H](C(C)C)[C@H](C)/C=C/C(=O)NC\C=C\1 [Carboxylic a R,S] | + | + | + | – | – | – | – | – | – | – | in vivo Acitivity of VM1-Carboxylic Derivatives, M.I.C. on M. luteus (multiplication of bacteria) ([1]; Concentration 0.5 μg/mL): +; in vivo Acitivity of VM1-Carboxylic Derivatives, M.I.C. on M. luteus (multiplication of bacteria) ([1]; Concentration 1 μg/mL): +; in vivo Acitivity of VM1-Carboxylic Derivatives, M.I.C. on M. luteus (multiplication of bacteria) ([1]; Concentration 2 μg/mL): +; in vivo Acitivity of VM1-Carboxylic Derivatives, M.I.C. on M. luteus (multiplication of bacteria) ([1]; Concentration 4 μg/mL): +; in vivo Acitivity of VM1-Carboxylic Derivatives, M.I.C. on M. luteus (multiplication of bacteria) ([1]; Concentration 8 μg/mL): +; in vivo Acitivity of VM1-Carboxylic Derivatives, M.I.C. on M. luteus (multiplication of bacteria) ([1]; Concentration 16 μg/mL): +
2 | 0.003 s⁻¹ | 229 | – | – | CC1=C\[C@@H](O)CC(=O)Cc2nc(co2)C(=O)N2CC[C@@H](SCCC(=O)O)[C@@H]2C(=O)O[C@H](C(C)C)[C@H](C)/C=C/C(=O)NC\C=C\1 [Carboxylic b R,S] | + | + | + | – | – | – | – | – | – | – | in vivo Acitivity of VM1-Carboxylic Derivatives, M.I.C. on M. luteus (multiplication of bacteria) ([1]; Concentration 0.5 μg/mL): +; in vivo Acitivity of VM1-Carboxylic Derivatives, M.I.C. on M. luteus (multiplication of bacteria) ([1]; Concentration 1 μg/mL): +; in vivo Acitivity of VM1-Carboxylic Derivatives, M.I.C. on M. luteus (multiplication of bacteria) ([1]; Concentration 2 μg/mL): +; in vivo Acitivity of VM1-Carboxylic Derivatives, M.I.C. on M. luteus (multiplication of bacteria) ([1]; Concentration 4 μg/mL): +; in vivo Acitivity of VM1-Carboxylic Derivatives, M.I.C. on M. luteus (multiplication of bacteria) ([1]; Concentration 8 μg/mL): +; in vivo Acitivity of VM1-Carboxylic Derivatives, M.I.C. on M. luteus (multiplication of bacteria) ([1]; Concentration 16 μg/mL): +; in vivo Acitivity of VM1-Carboxylic Derivatives, M.I.C. on M. luteus (multiplication of bacteria) ([1]; Concentration 32 μg/mL): +
3 | – | – | 0.019 | 35.6 | CC1=C\[C@@H](O)CC(=O)Cc2nc(co2)C(=O)N2CC[C@@H](SCC(=O)OCC(Cl)(Cl)Cl)[C@@H]2C(=O)O[C@H](C(C)C)[C@H](C)/C=C/C(=O)NC\C=C\1 [Ester a R,S] | – | – | – | + | + | + | – | – | – | – | –
4 | 0.015 s⁻¹ | 46 | – | – | CC1=C\[C@@H](O)CC(=O)Cc2nc(co2)C(=O)N2CC[C@H](SCCCCC(=O)O)[C@H]2C(=O)O[C@H](C(C)C)[C@H](C)/C=C/C(=O)NC\C=C\1 [Carboxylic c S,R] | + | + | + | – | – | – | – | – | – | – | –
5 | 0.019 s⁻¹ | 38.7 | – | – | CC1=C\[C@@H](O)CC(=O)Cc2nc(co2)C(=O)N2CC[C@@H](SCCCCC(=O)O)[C@@H]2C(=O)O[C@H](C(C)C)[C@H](C)/C=C/C(=O)NC\C=C\1 [Carboxylic c R,S] | + | + | + | – | – | – | – | – | – | – | –
6 | – | – | 0.021 | 32.7 | CC1=C\[C@@H](O)CC(=O)Cc2nc(co2)C(=O)N2CC[C@@H](SCCC(=O)OCC(Cl)(Cl)Cl)[C@@H]2C(=O)O[C@H](C(C)C)[C@H](C)/C=C/C(=O)NC\C=C\1 [Ester b R,S] | – | – | – | + | + | + | + | – | – | – | –
7 | – | – | – | – | CC1=C\[C@@H](O)CC(=O)Cc2nc(co2)C(=O)N2CC[C@H](SCCCCC(=O)OCC(Cl)(Cl)Cl)[C@H]2C(=O)O[C@H](C(C)C)[C@H](C)/C=C/C(=O)NC\C=C\1 [Ester c S,R] | – | – | – | + | + | + | + | + | + | + | in vivo Activity of VM1-Ester Derivatives, M.I.C. on M. luteus (multiplication of bacteria) ([1]; Concentration 8 μg/mL): +; kobs (symbol) [2, 4]: *
8 | – | – | 0.0009 | 721 | CC1=C\[C@@H](O)CC(=O)Cc2nc(co2)C(=O)N2CC[C@H](SCCC(=O)OCC(Cl)(Cl)Cl)[C@H]2C(=O)O[C@H](C(C)C)[C@H](C)/C=C/C(=O)NC\C=C\1 [Ester b S,R] | – | – | – | + | + | + | + | + | + | + | in vivo Activity of VM1-Ester Derivatives, M.I.C. on M. luteus (multiplication of bacteria) ([1]; Concentration 8 μg/mL): +
9 | 0.068 s⁻¹ | 10.2 | 0.068 | 10.2 | CC1=C\[C@@H](O)CC(=O)Cc2nc(co2)C(=O)N2CCC=C2C(=O)O[C@H](C(C)C)[C@H](C)/C=C/C(=O)NC\C=C\1 [VM1, virginiamycin M1] | + | – | – | + | – | – | – | – | – | – | –
10 | – | – | – | – | CC1=C\[C@@H](O)CC(=O)Cc2nc(co2)C(=O)N2CC[C@H](SCC(=O)O)[C@H]2C(=O)O[C@H](C(C)C)[C@H](C)/C=C/C(=O)NC\C=C\1 [Carboxylic a S,R] | + | + | + | – | – | – | – | – | – | – | in vivo Acitivity of VM1-Carboxylic Derivatives, M.I.C. on M. luteus (multiplication of bacteria) ([1]; Concentration 0.5 μg/mL): +; in vivo Acitivity of VM1-Carboxylic Derivatives, M.I.C. on M. luteus (multiplication of bacteria) ([1]; Concentration 1 μg/mL): +; in vivo Acitivity of VM1-Carboxylic Derivatives, M.I.C. on M. luteus (multiplication of bacteria) ([1]; Concentration 2 μg/mL): +; in vivo Acitivity of VM1-Carboxylic Derivatives, M.I.C. on M. luteus (multiplication of bacteria) ([1]; Concentration 4 μg/mL): +; in vivo Acitivity of VM1-Carboxylic Derivatives, M.I.C. on M. luteus (multiplication of bacteria) ([1]; Concentration 8 μg/mL): +; in vivo Acitivity of VM1-Carboxylic Derivatives, M.I.C. on M. luteus (multiplication of bacteria) ([1]; Concentration 16 μg/mL): +; in vivo Acitivity of VM1-Carboxylic Derivatives, M.I.C. on M. luteus (multiplication of bacteria) ([1]; Concentration 32 μg/mL): +; in vivo Acitivity of VM1-Carboxylic Derivatives, M.I.C. on M. luteus (multiplication of bacteria) ([1]; Concentration 128 μg/mL): +; kobs (symbol) [2, 3]: *
11 | – | – | 0.020 | 34.1 | CC1=C\[C@@H](O)CC(=O)Cc2nc(co2)C(=O)N2CC[C@@H](SCCCCC(=O)OCC(Cl)(Cl)Cl)[C@@H]2C(=O)O[C@H](C(C)C)[C@H](C)/C=C/C(=O)NC\C=C\1 [Ester c R,S] | – | – | – | + | + | + | + | + | + | + | –
12 | – | – | – | – | CC1=C\[C@@H](O)CC(=O)Cc2nc(co2)C(=O)N2CC[C@H](SCC(=O)OCC(Cl)(Cl)Cl)[C@H]2C(=O)O[C@H](C(C)C)[C@H](C)/C=C/C(=O)NC\C=C\1 [Ester a S,R] | – | – | – | + | + | + | + | + | + | + | in vivo Activity of VM1-Ester Derivatives, M.I.C. on M. luteus (multiplication of bacteria) ([1]; Concentration 8 μg/mL): +; in vivo Activity of VM1-Ester Derivatives, M.I.C. on M. luteus (multiplication of bacteria) ([1]; Concentration 16 μg/mL): +; kobs (symbol) [2, 4]: *
